{
  "source": "patent US20260258420A1",
  "about": "“COMPOSITIONS AND METHODS FOR THE TREATMENT OF HUMAN PAPILLOMAVIRUS-DRIVEN CANCERS” (priority 2023, published 2026)",
  "key": {"[1]": {"tested_on": "17 HPV-negative HNSCC and cervical squamous cancer cell lines", "assay": "High-throughput drug screen (HTDS), cell death by AOC_LD, HPV-negative cell lines", "type": "cell-based", "experimental": "The concordance correlation coefficient was computed to assess the reproducibility of the normalized growth rates of the 2 replicates. […] A chi-square test was applied to compare drug classification and the cluster membership. The Fisher exact test was applied to compare mutations status (wild-type and mutant) and drugs' response data (sensitive and resistant).\nThe effects of 864 unique drugs from 51 classes was tested in 16 HPV-positive and 17 HPV-negative HNSCC and cervical squamous cancer cell lines (Table 2) that were characterized previously (Kaiu, et al., Oncotarget 2017; 8(49):86369-83)."}, "[2]": {"tested_on": "2 HPV-positive cell lines with TRIP13 overexpression", "assay": "Apoptosis with TRIP13 overexpression, HPV-positive cells", "type": "cell-based", "conditions": "300 nmol/L, 24 or 32 hours", "experimental": "FIG. 5A, two HPV-positive cell lines (CASKI and SIHA) were transfected with BUB1B or MAD2L1 siRNA and then treated for 24 hours with 300 nmol/L alisertib before lysis and immunoblotting with the indicated antibodies. FIG. 5B, TRIP13 was transiently overexpressed (Ox) in 2 HPV-positive cell lines that were treated for 24 hours with 300 nmol/L alisertib before lysis and immunoblotting for the indicated proteins. FIG. 5C, HPV-positive cell lines with TRIP13 overexpression were treated with 300 nmol/L alisertib for 32 hours and then stained for annexin V-PE/7AAD staining and analysis with flow cytometry to measure apoptosis. The bar graph represents the ratio of apoptosis (late plus early) among different groups. Values are the means±the standard deviations for 3 independent experiments. ** P≤0.01; *** P≤0.001; unpaired, 2-tailed Student t-test. FIG. 5D, HN31 (left panel) and MDA886LN (right panel) cells expressing RB1 or control shRNA were transfected with a plasmid for TRIP13. After 24 hours, cells were treated with 300 nmol/L alisertib and then lysed for immunoblotting. Cl, cleaved; Fl, full length; GAPDH, glyceraldehyde 3-phosphate dehydrogenase.\nIn normal cells, prolonged mitosis resulting from Mad2 overexpression can lead to G1 arrest or mitotic cell death, so it is unclear why Mad2 overexpression is tolerated in HPV-positive cancers. […]"}, "[3]": {"tested_on": "HPV-negative UMSCC22A cells", "assay": "In vivo tumor growth, HPV-negative xenograft", "design": "species or system mice", "conditions": "10 mg/kg oral gavage 5 days per week for 21 days, high Rb protein levels", "experimental": "PDX tumors HOSC144 (FIG. 3A, FIG. 3E, FIG. 3F), HOSC19 (FIG. 3B), and HOSC156 (FIG. 3C) were implanted into the flanks of nude mice. After engraftment, mice were randomized and assigned into 1 of 2 treatment groups: vehicle (β-cyclodextrin, n=8) or alisertib (10 mg/kg, n=8). Mice were treated for 3 weeks by daily oral gavage. Tumor size was measured twice a week. FIG. 3A, FIG. 3B, and FIG. 3C show in vivo tumor growth curves for individual mice (left 3 panels). Survival (right panels) was measured using the Kaplan-Meier method. In FIG. 3D, HPV-negative UMSCC22A cells were injected subcutaneously (3×10^6 cells) on the right flanks of the mice. Once the tumor volume reached ≥60 mm^3, mice were randomized into treatment groups. Mice were treated with vehicle or 10 mg/kg alisertib by oral gavage for 5 days per week for 21 days. Tumor size was measured twice a week. […] The Ki67(%) was calculated as the ratio of proliferative cells to total cells in each field, using five random fields. […] The apoptotic (%) was calculated as the ratio of apoptotic cells to total cells in each field, using five random fields in HOSC144 PDX tumors after 8 or 21 days of treatment with either vehicle or alisertib. ** P≤0.01; *** P≤0.001. Bars, […]. […]"}, "[4]": {"tested_on": "two HPV-positive cell lines transfected with E7 siRNA", "assay": "Apoptosis immunoblot in HPV-positive cells with E7 siRNA", "type": "cell-based", "conditions": "300 nmol/L, 24 hours", "experimental": "Each data point represents 1 cell line. Box plots show the median pRb […] levels and 95% confidence intervals across all cell lines in the category. t-test P=0.0097. FIG. 4B, HPV-negative HNSCC cells (HN31, UMSCC4, and MDA886LN) were infected with distinct, lentivirus-based shRNAs (Sh2, Sh4, and Sh6) to stably knock down the expression of RB1 or were treated with control (Ctrl) shRNA. Cells were then treated with 300 nmol/L alisertib for 24 hours before annexin V-PE/7AAD staining and analysis with flow cytometry. The bar graph represents the ratio of apoptosis (late plus early) among different groups. Values are the means±the standard deviations for 3 independent experiments. *P<0.05; **P<0.005; unpaired, 2-tailed Student t-test. FIG. 4C, cells from FIG. 4B were treated with 300 nmol/L alisertib for 24 hours before lysis and immunoblotting with the indicated antibodies. FIG. 4D-E, HN31 cells were stably transfected with an E7 plasmid and treated with 300 nmol/L alisertib for 24 hours before lysis and immunoblotting with (FIG. 4D) the indicated antibodies or (FIG. 4E) annexin-PE staining to measure apoptosis. Values are the means±the standard deviations for 3 independent experiments. ** P≤0.01; *** P≤0.001. FIG. 4F, two HPV-positive cell lines were transfected with 10 nmol/L siRNA oligonucleotides specific to E7 or with control oligonucleotides. […]"}},
  "data": [
    {"smiles": "COc1cc(Nc2ncc3c(n2)-c2ccc(Cl)cc2C(c2c(F)cccc2OC)=NC3)ccc1C(=O)O", "note": "[ALISERTIB, alisertib]", "values": [
      {"measurement": "HPV negative Resistant (number of cell lines)", "setting": "[1]; resistant = AOC_LD 0", "value": 16},
      {"measurement": "HPV negative Sensitive (number of cell lines)", "setting": "[1]; sensitive = AOC_LD greater than 0", "value": 1},
      {"measurement": "apoptosis with TRIP13 overexpression (PARP and caspase-3 cleavage, annexin V)", "setting": "[2]", "value": "partial rescue"},
      {"measurement": "tumor response", "setting": "[3]", "value": "resistant"},
      {"measurement": "apoptosis with and without E7 knockdown (increased Rb expression)", "setting": "[4]", "value": "caused apoptosis in the HPV-positive cell lines but not in the same cells with increased Rb expression"}
    ]}
  ]
}
